In series [1] the test system is Typhlodromus pyri. As to conditions: not reported; mortality.
In series [2] the test system is Bird. The conditions noted are these: acute; oral; unspecified; mortality.
In series [3] the test system is Oryctolagus sp. The conditions noted are these: reproduction developmental; mortality.
In series [4] the test system is Anas platyrhynchos.
For series [5], the system named is Oncorhynchus mykiss.
In series [6] the test system is Apis mellifera. As to conditions: acute, duration: 48 hours, mortality.
For series [7], the system named is Rattus norvegicus.
The subject of series [8] is Daphnia magna.
Series [9] concerns Aphidius rhopalosiphi. The conditions noted are these: not reported; mortality.
Where [10] appears, read: chronic/long-term, duration: 21 days.

In brackets after ≈: the same amount, converted by molar mass.

For the compound `COC(=O)c1ccccc1S(=O)(=O)NC(=O)N(C)c1nc(C)nc(OC)n1` [Tribenuron-methyl], the LEL in series [1] and in series [9] was 30 g/ha each time. In addition, the LD50 in [2] is over 2250 mg/kg; in [6] (dermal), over 98.4 µg/piece; in [6] (oral, unspecified), over 9.1 µg/piece; in series [7] (acute, oral, mortality), over 5000 mg/kg. Further, the NOAEL in series [3] came out at 20 mg/kg-day; in series [4] (reproductive) it was 21 mg/kg-day; in series [7] (chronic, duration: 2 years, body weight) it was 1 mg/kg-day; in [7] (reproduction developmental, reproduction), 19 mg/kg-day; in [7] (subchronic, duration: 90 days, oral, body weight), 7 mg/kg-day. Besides, the LC50 in [4] (short-term, oral, feed, mortality) is over 974 mg/kg-day; in series [5] (acute, duration: 96 hours, mortality), 738 mg/L (≈ 1870 µM); in [8] (acute, duration: 48 hours, mortality), over 894 mg/L. Besides, the NOEC in series [5] (setting [10]) came out at 560 mg/L; in [8] (setting [10]) it was 120 mg/L.

The record behind these values is EPA's ToxValDB 9.5 (doi:10.2903/j.efsa.2005.15r).
